Measured values published in patent US20260014232A1, “Pharmaceutical Composition of GLP-1 and GIP Receptor Dual Agonist and Use Thereof” (Jiangsu Hengrui Pharmaceuticals Co., Ltd., priority 2021, published 2026).
Starred links: 1 amine or outer side, 2 acyl side, 3 side chain; linkers in the order of their positions; H or OH if unused. Non-standard residues stand in square brackets, D forms with d. Residues, ends and D or L forms follow the SMILES beside them. Groups on a side chain read outwards from the residue. *: point of attachment. C20 diacid = O=C(O)CCCCCCCCCCCCCCCCCCC(=O)*; γGlu = O=C(O)[C@H](CCC(=O)[*:2])N[*:1]; AEEA = NCCOCCOCC(=O)O; Aib = CC(C)(N)C(=O)O

What was measured:
[1] = Food intake of diet-induced-obesity (DIO) mice; assay type: in vivo, C57BL/6 mice
Experimental: High-fat food-induced-obesity male C57BL/6 mice (weighing 35-55 g, aged 10-12 weeks, purchased from Shanghai Jiesijie Laboratory Animal Co., Ltd.) were tested. […] According to the experimental design, the body weight of each mouse was measured and recorded on day 0, day 3, day 6, and so on to day 27, the average body weight of each group of mice was calculated, and body weight change curves were plotted by taking the body weight on the first day as the standard. At the end, the fat and other visceral organs of each part of the mice were taken out and weighed, and the viscera/brain ratio for fat in each part of each mouse was calculated. The effect of the drug on the fat was determined by comparing the change in the viscera/brain ratio for fat of different parts of each group of mice.
The food intake of mice in each group was measured daily during the experiment.

[2] = Glucose metabolism level of db/db mice (fasting and random blood glucose, glycated hemoglobin); assay type: in vivo, C57BL/KsJ-db/db mice; settings: for Glycated hemoglobin: end of experiment day 28, mean ± SD
Experimental: Each administration group had 10 db/db mice. According to the experimental design, tail vein blood was collected by needle pricking on days 0, 7, 14, 21, and 28 and determined for fasting blood glucose levels with a glucometer and glucose dipsticks, and the mice were fasted 6 h prior to the blood collection at each time point. Tail vein blood was collected by needle pricking on days 3, 10, 17, 24, and 27 and randomly determined for blood glucose levels with a glucometer. Finally, at the end of the experiment on day 28, all the animals in the administration groups were subjected to 2-5% isoflurane inhalation anesthesia, and 100 μL of whole blood was collected through the orbit of each mouse using an EDTA-K2 anticoagulation tube and used for the determination of glycated hemoglobin.

[3] = 10 nmol/kg s.c., Day 0, mean ± SD
[4] = 30 nmol/kg s.c., Day 0, mean ± SD
[5] = 100 nmol/kg s.c., Day 0, mean ± SD

**Q.** What does the source list for `CC[C@H](C)[C@H](NC(=O)[C@H](CCCCN)NC(=O)[C@H](CCC(=O)O)NC(=O)[C@H](CCCCNC(=O)COCCOCCNC(=O)COCCOCCNC(=O)CC[C@H](NC(=O)CCCCCCCCCCCCCCCCCCC(=O)O)C(=O)O)NC(=O)[C@H](Cc1ccc(O)cc1)NC(=O)[C@@H](NC(=O)[C@H](CO)NC(=O)[C@H](Cc1ccc(O)cc1)NC(=O)[C@H](CC(=O)O)NC(=O)[C@H](CO)NC(=O)[C@@H](NC(=O)[C@H](Cc1ccccc1)NC(=O)[C@@H](NC(=O)CNC(=O)[C@H](CCC(=O)O)NC(=O)C(C)(C)NC(=O)[C@@H](N)Cc1ccc(O)cc1)[C@@H](C)O)[C@@H](C)O)[C@@H](C)CC)C(=O)N[C@@H](C)C(=O)N[C@@H](C)C(=O)N[C@@H](CCC(N)=O)C(=O)N[C@@H](CCC(=O)O)C(=O)N[C@@H](Cc1ccccc1)C(=O)N[C@H](C(=O)N[C@@H](CC(N)=O)C(=O)N[C@@H](Cc1c[nH]c2ccccc12)C(=O)N[C@@H](CC(C)C)C(=O)N[C@@H](CC(C)C)C(=O)N[C@@H](C)C(=O)NCC(=O)NCC(=O)N1CCC[C@H]1C(=O)N[C@@H](CO)C(=O)N[C@@H](CO)C(=O)NCC(=O)N[C@@H](C)C(=O)N1CCC[C@H]1C(=O)N1CCC[C@H]1C(=O)N1CCC[C@H]1C(=O)N[C@@H](CO)C(N)=O)C(C)C` [Compound 18#] (H-Y[Aib]EGTFTSDYSIYK([AEEA-AEEA-γGlu-C20 diacid])EKIAAQEFVNWLLAGGPSSGAPPPS-NH2)?
**A.** cumulative food intake 28 days after the administration ([1]; 3 nmol/kg): 58.2 g; cumulative food intake within 5 days after the administration ([1]; 3 nmol/kg): 7.2 g; daily food intake ([1]; 3 nmol/kg, day 1, listed as 18 #): 0.6 g; daily food intake ([1]; 3 nmol/kg, day 1, listed as 18#): 0.6 g; daily food intake ([1]; 3 nmol/kg, day 2): 1.3 g; daily food intake ([1]; 3 nmol/kg, day 3): 2 g; daily food intake ([1]; 3 nmol/kg, day 4): 1.1 g; daily food intake ([1]; 3 nmol/kg, day 5): 2.2 g; daily food intake ([1]; 3 nmol/kg, day 6): 2.1 g; daily food intake ([1]; 3 nmol/kg, day 7): 1.1 g; daily food intake ([1]; 3 nmol/kg, day 8): 1.6 g; daily food intake ([1]; 3 nmol/kg, day 9): 2.5 g; daily food intake ([1]; 3 nmol/kg, day 10): 1.3 g; daily food intake ([1]; 3 nmol/kg, day 11): 2 g; daily food intake ([1]; 3 nmol/kg, day 12): 3 g; daily food intake ([1]; 3 nmol/kg, day 13): 1.8 g; daily food intake ([1]; 3 nmol/kg, day 14): 2.3 g; daily food intake ([1]; 3 nmol/kg, day 15): 2.9 g; daily food intake ([1]; 3 nmol/kg, day 16): 1.5 g; daily food intake ([1]; 3 nmol/kg, day 17): 2.2 g; daily food intake ([1]; 3 nmol/kg, day 18): 2.7 g; daily food intake ([1]; 3 nmol/kg, day 19): 1.7 g; daily food intake ([1]; 3 nmol/kg, day 20): 2.2 g; daily food intake ([1]; 3 nmol/kg, day 21): 3.4 g; daily food intake ([1]; 3 nmol/kg, day 22): 1.8 g; daily food intake ([1]; 3 nmol/kg, day 23): 2.6 g; daily food intake ([1]; 3 nmol/kg, day 24): 2.9 g; daily food intake ([1]; 3 nmol/kg, day 25): 1.8 g; daily food intake ([1]; 3 nmol/kg, day 26): 2.5 g; daily food intake ([1]; 3 nmol/kg, day 27): 3.9 g; daily food intake ([1]; 3 nmol/kg, day 28): 1.3 g; cumulative food intake 28 days after the administration ([1]; 10 nmol/kg): 46.8 g; cumulative food intake within 5 days after the administration ([1]; 10 nmol/kg): 3.9 g; daily food intake ([1]; 10 nmol/kg, day 1, listed as 18 #): 0.3 g; daily food intake ([1]; 10 nmol/kg, day 1, listed as 18#): 0.3 g; daily food intake ([1]; 10 nmol/kg, day 2): 0.6 g; daily food intake ([1]; 10 nmol/kg, day 3): 1.1 g; daily food intake ([1]; 10 nmol/kg, day 4): 0.7 g; daily food intake ([1]; 10 nmol/kg, day 5): 1.1 g; daily food intake ([1]; 10 nmol/kg, day 6): 1.5 g; daily food intake ([1]; 10 nmol/kg, day 7): 0.8 g; daily food intake ([1]; 10 nmol/kg, day 8): 1.1 g; daily food intake ([1]; 10 nmol/kg, day 9): 2 g; daily food intake ([1]; 10 nmol/kg, day 10): 0.9 g; daily food intake ([1]; 10 nmol/kg, day 11): 1.8 g; daily food intake ([1]; 10 nmol/kg, day 12): 2.4 g; daily food intake ([1]; 10 nmol/kg, day 13): 0.9 g; daily food intake ([1]; 10 nmol/kg, day 14): 1.7 g; daily food intake ([1]; 10 nmol/kg, day 15): 3 g; daily food intake ([1]; 10 nmol/kg, day 16): 1.2 g; daily food intake ([1]; 10 nmol/kg, day 17): 2.1 g; daily food intake ([1]; 10 nmol/kg, day 18): 2.9 g; daily food intake ([1]; 10 nmol/kg, day 19): 1.3 g; daily food intake ([1]; 10 nmol/kg, day 20): 2 g; daily food intake ([1]; 10 nmol/kg, day 21): 3.2 g; daily food intake ([1]; 10 nmol/kg, day 22): 1 g; daily food intake ([1]; 10 nmol/kg, day 23): 2.3 g; daily food intake ([1]; 10 nmol/kg, day 24): 2.5 g; daily food intake ([1]; 10 nmol/kg, day 25): 1.6 g; daily food intake ([1]; 10 nmol/kg, day 26): 2.2 g; daily food intake ([1]; 10 nmol/kg, day 27): 3.6 g; daily food intake ([1]; 10 nmol/kg, day 28): 1 g; cumulative food intake 28 days after the administration ([1]; 100 nmol/kg): 36.7 g; cumulative food intake within 5 days after the administration ([1]; 100 nmol/kg): 1.8 g; daily food intake ([1]; 100 nmol/kg, day 1, listed as 18 #): 0.2 g; daily food intake ([1]; 100 nmol/kg, day 1, listed as 18#): 0.2 g; daily food intake ([1]; 100 nmol/kg, day 2): 0.1 g; daily food intake ([1]; 100 nmol/kg, day 3): 0.4 g; daily food intake ([1]; 100 nmol/kg, day 4): 0.4 g; daily food intake ([1]; 100 nmol/kg, day 5): 0.6 g; daily food intake ([1]; 100 nmol/kg, day 6): 0.7 g; daily food intake ([1]; 100 nmol/kg, day 7): 0.5 g; daily food intake ([1]; 100 nmol/kg, day 8): 0.7 g; daily food intake ([1]; 100 nmol/kg, day 9): 0.9 g; daily food intake ([1]; 100 nmol/kg, day 10): 0.9 g; daily food intake ([1]; 100 nmol/kg, day 11): 1.1 g; daily food intake ([1]; 100 nmol/kg, day 12): 2 g; daily food intake ([1]; 100 nmol/kg, day 13): 1.3 g; daily food intake ([1]; 100 nmol/kg, day 14): 1.7 g; daily food intake ([1]; 100 nmol/kg, day 15): 2 g; daily food intake ([1]; 100 nmol/kg, day 16): 1 g; daily food intake ([1]; 100 nmol/kg, day 17): 1.6 g; daily food intake ([1]; 100 nmol/kg, day 18): 2 g; daily food intake ([1]; 100 nmol/kg, day 19): 1.4 g; daily food intake ([1]; 100 nmol/kg, day 20): 1.8 g; daily food intake ([1]; 100 nmol/kg, day 21): 2.4 g; daily food intake ([1]; 100 nmol/kg, day 22): 1.4 g; daily food intake ([1]; 100 nmol/kg, day 23): 2.1 g; daily food intake ([1]; 100 nmol/kg, day 24): 2.3 g; daily food intake ([1]; 100 nmol/kg, day 25): 1.5 g; daily food intake ([1]; 100 nmol/kg, day 26): 1.6 g; daily food intake ([1]; 100 nmol/kg, day 27): 2.8 g; daily food intake ([1]; 100 nmol/kg, day 28): 1.2 g; Concentration of fasting blood glucose [2, 3]: 14.77 ± 1.30 mmol/L; Concentration of random blood glucose [2, 3]: 20.42 ± 1.56 mmol/L; Concentration of fasting blood glucose ([2]; 10 nmol/kg s.c., Day 7, mean ± SD): 6.05 ± 0.42 mmol/L; Concentration of random blood glucose ([2]; 10 nmol/kg s.c., Day 10, mean ± SD): 20.66 ± 1.48 mmol/L; Concentration of fasting blood glucose ([2]; 10 nmol/kg s.c., Day 14, mean ± SD): 6.30 ± 0.46 mmol/L; Concentration of random blood glucose ([2]; 10 nmol/kg s.c., Day 17, mean ± SD): 18.91 ± 1.33 mmol/L; Concentration of fasting blood glucose ([2]; 10 nmol/kg s.c., Day 21, mean ± SD): 7.89 ± 0.81 mmol/L; Concentration of random blood glucose ([2]; 10 nmol/kg s.c., Day 24, mean ± SD): 21.17 ± 2.07 mmol/L; Concentration of fasting blood glucose ([2]; 10 nmol/kg s.c., Day 28, mean ± SD): 9.41 ± 0.97 mmol/L; Glycated hemoglobin ([2]; 10 nmol/kg s.c.): 4.71 ± 0.23 %; Concentration of fasting blood glucose [2, 4]: 14.13 ± 1.32 mmol/L; Concentration of random blood glucose [2, 4]: 16.73 ± 1.59 mmol/L; Concentration of fasting blood glucose ([2]; 30 nmol/kg s.c., Day 7, mean ± SD): 6.21 ± 0.26 mmol/L; Concentration of random blood glucose ([2]; 30 nmol/kg s.c., Day 10, mean ± SD): 15.88 ± 1.86 mmol/L; Concentration of fasting blood glucose ([2]; 30 nmol/kg s.c., Day 14, mean ± SD): 6.40 ± 0.57 mmol/L; Concentration of random blood glucose ([2]; 30 nmol/kg s.c., Day 17, mean ± SD): 17.30 ± 1.17 mmol/L; Concentration of fasting blood glucose ([2]; 30 nmol/kg s.c., Day 21, mean ± SD): 7.03 ± 0.52 mmol/L; Concentration of random blood glucose ([2]; 30 nmol/kg s.c., Day 24, mean ± SD): 17.43 ± 1.92 mmol/L; Concentration of fasting blood glucose ([2]; 30 nmol/kg s.c., Day 28, mean ± SD): 9.68 ± 1.03 mmol/L; Glycated hemoglobin ([2]; 30 nmol/kg s.c.): 4.53 ± 0.17 %; Concentration of fasting blood glucose [2, 5]: 14.67 ± 1.46 mmol/L; Concentration of random blood glucose [2, 5]: 9.11 ± 1.25 mmol/L; Concentration of fasting blood glucose ([2]; 100 nmol/kg s.c., Day 7, mean ± SD): 5.85 ± 0.33 mmol/L; Concentration of random blood glucose ([2]; 100 nmol/kg s.c., Day 10, mean ± SD): 12.34 ± 1.12 mmol/L; Concentration of fasting blood glucose ([2]; 100 nmol/kg s.c., Day 14, mean ± SD): 6.25 ± 0.32 mmol/L; Concentration of random blood glucose ([2]; 100 nmol/kg s.c., Day 17, mean ± SD): 11.89 ± 1.15 mmol/L; Concentration of fasting blood glucose ([2]; 100 nmol/kg s.c., Day 21, mean ± SD): 6.13 ± 0.19 mmol/L; Concentration of random blood glucose ([2]; 100 nmol/kg s.c., Day 24, mean ± SD): 11.51 ± 0.95 mmol/L; Concentration of fasting blood glucose ([2]; 100 nmol/kg s.c., Day 28, mean ± SD): 7.89 ± 0.41 mmol/L; Glycated hemoglobin ([2]; 100 nmol/kg s.c., listed as 18 #): 3.78%; Glycated hemoglobin ([2]; 100 nmol/kg s.c., listed as #18): 3.78 ± 0.13 %
